Patent US10905661B2, “Disulfiram and metal salt staggered oral dosing regimen and staggered-release oral unit dosage forms” (Cantex Pharmaceuticals, Inc., priority 2016, dated 2021)

Key:
[1] = Stability of disulfiram with zinc gluconate or copper gluconate after 4 weeks at 40° C.; format: physicochemical; conditions: 4 weeks @ 40° C./75% RH; Actual Conc. 0.040 mg/mL
Protocol: Stability of disulfiram and zinc gluconate was tested after 4 weeks at 40° C. in 0.1 N HCl. (Table 24).

[2] = Compatibility of disulfiram and zinc gluconate in 0.1N HCl (color, precipitate); format: physicochemical
Protocol: Compatibility of disulfiram and zinc gluconate for simultaneous oral administration was assessed. […] and 40 mg of disulfiram were mixed in 50 mL volumetric flasks, and 0.1N HCl was added to the flasks. […] A control was run in parallel: 0.1N HCl solution containing 50 mg of zinc gluconate alone.

Molecule	Conc. (disulfiram found) [1] [ng/mL]	color change ([2]; 25° C./ambient humidity for 2 days)	precipitate / clarity of solution ([2]; T0 and T=2 days, 25° C.)
CCN(CC)C(=S)SSC(=S)N(CC)CC [DSF, bis(diethylthiocarbamoyl) disulfide]	40000	–	–
zinc gluconate [zinc gluconate alone]	–	no color change	remained clear
